1 compound from ChEMBL document CHEMBL1201862, “PubChem BioAssay data set” (2004) can be followed below.

Holding throughout (assay): DTP human tumour cell line panel, 48 h
Assay [1] concerns HL-60.
Assay [2] deals with LOX IMVI.
In assay [3] the test system is HOP-62.
In assay [4] the test system is NCI-H23.
For assay [5], the system named is MDA-MB-435.
The subject of assay [6] is NCI-H460.
The test system of assay [7] is NCI-H522.
The subject of assay [8] is EKVX.
In assay [9] the test system is UACC-257.
In assay [10] the test system is TK-10.
Assay [11] deals with HCT-15.
Assay [12] has as its system OVCAR-4.
The test system of assay [13] is SN12C.
Assay [14] deals with RXF 393.
Assay [15] concerns HCT-116.
Assay [16] has as its system BT-549.
In assay [17] the test system is NCI/ADR-RES.
The test system of assay [18] is SW-620.
The subject of assay [19] is K562.
The subject of assay [20] is ACHN.

Structures are written as SMILES.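 48-hour exposure; five concentrations; linearly interpolated endpoints. GI50 = concentration required for 50% inhibition of growth.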 The source made the active and inactive calls. Cut-off read from the data, not from the text of the source: active = GI50 up to about 1.1 µM and inactive = higher.

On to `C/C=C/C[C@@H](C)C(=O)C1C(=O)N[C@@H](C(C)C)C(=O)N(C)CC(=O)N(C)[C@@H](CC(C)C)C(=O)N[C@@H](C(C)C)C(=O)N(C)[C@@H](CC(C)C)C(=O)N[C@@H](C)C(=O)N[C@@H](C)C(=O)N(C)[C@@H](CC(C)C)C(=O)N(C)[C@@H](CC(C)C)C(=O)N(C)[C@@H](C(C)C)C(=O)N1C` (stereo not given in full), for which the GI50 – broadly, the concentration giving 50% growth inhibition – in [1] was 2.8 µM (inactive); in assay [2], 2.82 µM (inactive); in [3] it was 6.47 µM (inactive); in [4], 7.83 µM (inactive); in assay [5], 3.35 µM (inactive); in assay [6], 6.01 µM (inactive). Moreover, the GI50 in assay [7] is 4.19 µM (inactive); in assay [8] it was 8.51 µM (inactive); in assay [9] it was 5.33 µM (inactive); in assay [10] it was 6.1 µM (inactive); in assay [11], 5.51 µM; in assay [12], 2.74 µM (inactive). The GI50 in assay [13] is 5.58 µM (inactive); in assay [14], 3.03 µM (inactive); in assay [15] it was 3.03 µM (inactive); in [16], 4.98 µM (inactive); in assay [17], 2.74 µM (inactive); in assay [18], 5.24 µM (inactive). In addition, the GI50 in assay [19] is 4.45 µM (inactive); in assay [20], 4.4 µM (inactive).
